These results are taken from ChEMBL document CHEMBL1137039, “Synthesis and structure-activity relationships of uracil derived human GnRH receptor antagonists: (R)-3-[2-(2-amino)phenethyl]-1-(2,6-difluorobenzyl)-6-methyluracils containing a substituted thiophene or thiazole at C-5” (Bioorg Med Chem Lett, 2004).

Data set [1] is described as follows: In vitro intrinsic clearance after incubation with human liver microsomes (HLM). The format is ADME, Microsome. For orientation: Microsomes from liver hold many membrane-bound enzymes, among them those of drug oxidation.
The target of data set [2] is T1, Gonadotropin-releasing hormone receptor (Homo sapiens, UniProt P30968).
T1 sequence (P30968 whole entry): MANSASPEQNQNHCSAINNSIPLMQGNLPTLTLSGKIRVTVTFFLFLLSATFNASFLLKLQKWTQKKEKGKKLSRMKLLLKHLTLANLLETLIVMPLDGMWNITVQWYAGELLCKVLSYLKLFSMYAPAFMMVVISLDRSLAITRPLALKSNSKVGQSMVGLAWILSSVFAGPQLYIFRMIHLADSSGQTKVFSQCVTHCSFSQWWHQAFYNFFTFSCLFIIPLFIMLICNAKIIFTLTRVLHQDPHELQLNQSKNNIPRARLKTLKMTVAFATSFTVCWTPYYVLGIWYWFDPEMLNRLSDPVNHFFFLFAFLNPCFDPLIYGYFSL
Nature of the data set: Binding affinity towards cloned human Gonadotropin-releasing hormone receptor expressed in RBL cells was determined by using [125I]GnRH as radioligand. In kind it is cell-based.

As for `COc1cccc(-c2c(C)n(Cc3c(F)cccc3F)c(=O)n(C[C@@H](C)N(C)Cc3ccccn3)c2=O)c1`, the intrinsic metabolic clearance (CLint scaled) (commonly a measure of how fast metabolising enzymes remove a compound, apart from limits set by blood flow) in data set [1] was 1700 mL/min/kg.
As for `Cc1c(-c2csc(-c3ccc(Cl)cc3)n2)c(=O)n(C[C@H](N)c2ccccc2)c(=O)n1Cc1c(F)cccc1F`, the inhibitory constant (Ki) (in general, a dissociation constant, usually derived from enzyme kinetics or from competition with a known ligand) in data set [2] was 15 nM. The CLint scaled in data set [1] amounted to 46 mL/min/kg.
`Cc1c(-c2ccc(Cl)cc2)c(=O)n(C[C@H](N)c2ccccc2)c(=O)n1Cc1c(F)cccc1F`: in data set [2], the affinity, expressed as Ki, was 14 nM. That is a double-digit nanomolar value.
On the same count and under the same terms, to `Cc1c(-c2csc(Nc3ccccc3)n2)c(=O)n(C[C@H](N)c2ccccc2)c(=O)n1Cc1c(F)cccc1F` belongs 70 nM; to `CCOC(=O)Nc1ccc(-c2nc(-c3c(C)n(Cc4c(F)cccc4F)c(=O)n(C[C@H](N)c4ccccc4)c3=O)cs2)cc1`, 7 nM.
On the same count and under the same terms, in the case of `Cc1c(-c2csc(-c3ccccc3Cl)n2)c(=O)n(C[C@H](N)c2ccccc2)c(=O)n1Cc1c(F)cccc1F` it was 30 nM; in that of `Cc1c(-c2cccs2)c(=O)n(C[C@H](N)c2ccccc2)c(=O)n1Cc1c(F)cccc1F`, 10 nM; in that of `Cc1c(-c2csc(NCc3ccccc3)n2)c(=O)n(C[C@H](N)c2ccccc2)c(=O)n1Cc1c(F)cccc1F`, 35 nM.
On the same count and under the same terms, to `Cc1ccc(Nc2nc(-c3c(C)n(Cc4c(F)cccc4F)c(=O)n(C[C@H](N)c4ccccc4)c3=O)cs2)cc1` belongs 49 nM.
For `Cc1c(-c2csc(-c3ccc(C(F)(F)F)cc3)n2)c(=O)n(C[C@H](N)c2ccccc2)c(=O)n1Cc1c(F)cccc1F`, the inhibition constant (Ki) in data set [2] was found to be 47 nM.
Still for that read-out and setting: to `Cc1c(-c2csc(Nc3ccc([N+](=O)[O-])cc3)n2)c(=O)n(C[C@H](N)c2ccccc2)c(=O)n1Cc1c(F)cccc1F` belongs 160 nM.
The same measure, in the same setting: in the case of `Cc1c(-c2csc(N3CCOCC3)n2)c(=O)n(C[C@H](N)c2ccccc2)c(=O)n1Cc1c(F)cccc1F` it was 1500 nM.
The same measure, in the same setting: in the case of `Cc1ccc(Nc2nc(-c3c(C)n(Cc4c(F)cccc4F)c(=O)n(C[C@H](N)c4ccccc4)c3=O)cs2)c(C)c1` it was 130 nM; in that of `Cc1ccccc1Nc1nc(-c2c(C)n(Cc3c(F)cccc3F)c(=O)n(C[C@H](N)c3ccccc3)c2=O)cs1`, 210 nM; in that of `Cc1c(-c2csc(-c3cccc(C(F)(F)F)c3)n2)c(=O)n(C[C@H](N)c2ccccc2)c(=O)n1Cc1c(F)cccc1F`, 150 nM.
Turning to `Cc1nc(-c2c(C)n(Cc3c(F)cccc3F)c(=O)n(C[C@H](N)c3ccccc3)c2=O)cs1`, the Ki in data set [2] turned out to be 120 nM.
Regarding `Cc1ccc(-c2nc(-c3c(C)n(Cc4c(F)cccc4F)c(=O)n(C[C@H](N)c4ccccc4)c3=O)cs2)cc1`, affinity in data set [2] was put at a Ki of 18 nM. For the same compound, the CLint scaled in data set [1] is 36 mL/min/kg.
As for `Cc1c(-c2ccc(Cl)s2)c(=O)n(C[C@H](N)c2ccccc2)c(=O)n1Cc1c(F)cccc1F`, affinity in data set [2] was put at a Ki of 2 nM. In other words, the single-digit nanomolar range.
The same measure, in the same setting: in the case of `COc1ccc(Nc2nc(-c3c(C)n(Cc4c(F)cccc4F)c(=O)n(C[C@H](N)c4ccccc4)c3=O)cs2)cc1OC` it was 33 nM.
`Cc1c(-c2csc(-c3ccc4c(c3)CCO4)n2)c(=O)n(C[C@H](N)c2ccccc2)c(=O)n1Cc1c(F)cccc1F` had an inhibition constant (Ki) in data set [2] of 20 nM. This Ki lies about 1.6-fold lower than the previous one.
The compound `Cc1c(-c2csc(Cc3ccccc3)n2)c(=O)n(C[C@H](N)c2ccccc2)c(=O)n1Cc1c(F)cccc1F` had a Ki in data set [2] of 9 nM.
Still for that read-out and setting: to `COc1ccc(Nc2nc(-c3c(C)n(Cc4c(F)cccc4F)c(=O)n(C[C@H](N)c4ccccc4)c3=O)cs2)cc1` belongs 42 nM; to `Cc1ccc(-c2c(C)n(Cc3c(F)cccc3F)c(=O)n(C[C@H](N)c3ccccc3)c2=O)s1`, 3 nM.
`CCNc1nc(-c2c(C)n(Cc3c(F)cccc3F)c(=O)n(C[C@H](N)c3ccccc3)c2=O)cs1` registered a Ki in data set [2] of 270 nM.
Same read-out and setting: to `COc1ccccc1Nc1nc(-c2c(C)n(Cc3c(F)cccc3F)c(=O)n(C[C@H](N)c3ccccc3)c2=O)cs1` belongs 130 nM.
On the same count and under the same terms, in the case of `Cc1c(-c2csc(N)n2)c(=O)n(C[C@H](N)c2ccccc2)c(=O)n1Cc1c(F)cccc1F` it was 3000 nM; in that of `Cc1c(-c2csc(-c3ccc(C(C)(C)C)cc3)n2)c(=O)n(C[C@H](N)c2ccccc2)c(=O)n1Cc1c(F)cccc1F`, 500 nM.
Still for that read-out and setting: to `Cc1c(-c2csc(N(C)c3ccccc3)n2)c(=O)n(C[C@H](N)c2ccccc2)c(=O)n1Cc1c(F)cccc1F` belongs 34 nM.
Compound `Cc1ccc(-c2nc(-c3c(C)n(Cc4c(F)cccc4F)c(=O)n(C[C@H](N)c4ccccc4)c3=O)cs2)cc1F` showed an inhibition constant Ki in data set [2] of 49 nM.
The same measure, in the same setting: in the case of `Cc1c(-c2csc(-c3ccccc3)n2)c(=O)n(C[C@H](N)c2ccccc2)c(=O)n1Cc1c(F)cccc1F` it was 26 nM; in that of `Cc1c(-c2csc(-c3ccc(F)cc3)n2)c(=O)n(C[C@H](N)c2ccccc2)c(=O)n1Cc1c(F)cccc1F`, 42 nM.
